Assay type in all cases: biochemical
For one assay, the target named is T1, Lck (Homo sapiens, UniProt P06239).
T1 construct: Kinases are expressed as either kinase domains or full length constructs; made in house
As to the kind of experiment: Kinase inhibition assay (33P transfer), Lck. Conditions: Table 3; for IC50: read-out: Lck-1. The method, boiled down:
(§1)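 Measured by scintillation: radiolabelled phosphate added by tagged recombinant kinases to poly(Glu,Tyr) 4:1 or poly(Arg,Ser) 3:1 attached to microtiter wells, counted once free label was washed away with 0.5% phosphoric acid.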

For another assay, the target named is T2, Zap-70 (Homo sapiens, UniProt P43403).
T2 construct: Kinases are expressed as either kinase domains or full length constructs; made in house
T2 sequence (P43403 1-619): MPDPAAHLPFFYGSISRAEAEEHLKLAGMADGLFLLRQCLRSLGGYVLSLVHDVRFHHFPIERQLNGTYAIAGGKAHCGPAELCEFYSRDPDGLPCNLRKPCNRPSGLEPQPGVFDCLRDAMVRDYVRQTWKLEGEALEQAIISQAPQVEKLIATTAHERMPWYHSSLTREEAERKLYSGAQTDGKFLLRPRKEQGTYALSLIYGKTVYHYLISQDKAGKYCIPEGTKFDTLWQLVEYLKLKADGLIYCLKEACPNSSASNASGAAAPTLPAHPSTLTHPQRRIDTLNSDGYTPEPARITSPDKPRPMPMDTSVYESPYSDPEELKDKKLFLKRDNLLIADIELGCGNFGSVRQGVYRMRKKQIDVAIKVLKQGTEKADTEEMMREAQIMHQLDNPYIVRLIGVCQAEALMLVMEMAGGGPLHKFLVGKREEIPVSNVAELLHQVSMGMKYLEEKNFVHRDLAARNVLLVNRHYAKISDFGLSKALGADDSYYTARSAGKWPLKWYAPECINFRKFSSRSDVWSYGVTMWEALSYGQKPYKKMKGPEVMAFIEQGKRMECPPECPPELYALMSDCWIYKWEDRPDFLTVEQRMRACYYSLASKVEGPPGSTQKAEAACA
As to the kind of experiment: Kinase inhibition assay (33P transfer), Zap-70. Conditions: Table 3; for IC50: read-out: Zap-1. The method, boiled down:
as §1

For the next assay, the target named is T3, Itk (Homo sapiens, UniProt Q08881).
T3 construct: Kinases are expressed as either kinase domains or full length constructs; made in house
T3 sequence (Q08881 1-620): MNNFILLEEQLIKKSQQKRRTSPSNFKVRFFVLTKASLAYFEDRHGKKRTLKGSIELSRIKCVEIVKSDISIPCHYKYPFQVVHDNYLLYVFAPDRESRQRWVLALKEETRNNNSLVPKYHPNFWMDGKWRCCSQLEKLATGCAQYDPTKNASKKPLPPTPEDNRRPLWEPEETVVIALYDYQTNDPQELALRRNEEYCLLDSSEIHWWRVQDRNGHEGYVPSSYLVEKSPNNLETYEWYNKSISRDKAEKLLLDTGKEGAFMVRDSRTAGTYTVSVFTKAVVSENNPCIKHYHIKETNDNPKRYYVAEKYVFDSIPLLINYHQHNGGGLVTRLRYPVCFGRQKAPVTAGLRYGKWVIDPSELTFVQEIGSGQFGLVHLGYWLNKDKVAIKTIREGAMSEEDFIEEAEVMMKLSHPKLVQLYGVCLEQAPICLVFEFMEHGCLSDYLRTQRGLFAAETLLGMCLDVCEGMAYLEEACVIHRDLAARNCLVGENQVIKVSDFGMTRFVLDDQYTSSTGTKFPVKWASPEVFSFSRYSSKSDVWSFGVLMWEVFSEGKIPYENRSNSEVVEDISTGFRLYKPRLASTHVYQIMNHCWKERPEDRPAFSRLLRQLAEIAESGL
The assay can be described thus: Kinase inhibition assay (33P transfer), Itk. Conditions: Table 3; for IC50: read-out: Itk-1. The method, boiled down:
(§2)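 Steps: coat wells with poly(Glu,Tyr) 4:1 or poly(Arg,Ser) 3:1; add purified kinase, [33P]ATP and inhibitor; incubate; wash with 0.5% phosphoric acid; add liquid scintillant; count. IC50 corresponds to half-maximal reduction of bound 33P.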

A further assay concerns the target T4, EGFR (Homo sapiens, UniProt P00533).
T4 construct: Kinases are expressed as either kinase domains or full length constructs; made in house
The assay can be described thus: Kinase inhibition assay (33P transfer), EGFR. Conditions: Table 2, kinase inhibition class; for IC50: read-out: EGFR-1. A digest of the protocol: as §2

The next assay concerns the target T5, Kdr (Homo sapiens, UniProt P35968).
T5 construct: Kinases are expressed as either kinase domains or full length constructs; made in house
As to the kind of experiment: Kinase inhibition assay (33P transfer), Kdr. Conditions: Table 3; for IC50: read-out: KDR-1. The method, boiled down:
as §1

A further assay has as its target T6, Tek (Homo sapiens, UniProt Q02763).
T6 construct: Kinases are expressed as either kinase domains or full length constructs; made in house
The assay can be described thus: Kinase inhibition assay (33P transfer), Tek. Conditions: read-out: Tek-1. The method, boiled down:
as §2

In another assay the target is T7, c-Met (Homo sapiens, UniProt P08581).
T7 construct: Kinases are expressed as either kinase domains or full length constructs; made in house
As to the kind of experiment: Kinase inhibition assay (33P transfer), c-Met. Conditions: Table 2, kinase inhibition class; for IC50: read-out: Met-1. The method, boiled down: as §2

For another assay, the target named is T8, AKT (Homo sapiens, UniProt Q9Y243).
T8 construct: Kinases are expressed as either kinase domains or full length constructs; made in house
As to the kind of experiment: Kinase inhibition assay (33P transfer), AKT. Conditions: Table 2, kinase inhibition class; for IC50: read-out: AKT3-1. The method, boiled down: as §1

Another assay has as its target T9, IGFR-1 (Homo sapiens, UniProt P08069).
T9 construct: Kinases are expressed as either kinase domains or full length constructs; made in house
The assay can be described thus: Kinase inhibition assay (33P transfer), IGFR-1. Conditions: Table 2, kinase inhibition class.

The target in another assay is T10, EPHB4 (Homo sapiens, UniProt P54760).
T10 construct: Kinases are expressed as either kinase domains or full length constructs; made in house
T10 sequence (P54760 16-987): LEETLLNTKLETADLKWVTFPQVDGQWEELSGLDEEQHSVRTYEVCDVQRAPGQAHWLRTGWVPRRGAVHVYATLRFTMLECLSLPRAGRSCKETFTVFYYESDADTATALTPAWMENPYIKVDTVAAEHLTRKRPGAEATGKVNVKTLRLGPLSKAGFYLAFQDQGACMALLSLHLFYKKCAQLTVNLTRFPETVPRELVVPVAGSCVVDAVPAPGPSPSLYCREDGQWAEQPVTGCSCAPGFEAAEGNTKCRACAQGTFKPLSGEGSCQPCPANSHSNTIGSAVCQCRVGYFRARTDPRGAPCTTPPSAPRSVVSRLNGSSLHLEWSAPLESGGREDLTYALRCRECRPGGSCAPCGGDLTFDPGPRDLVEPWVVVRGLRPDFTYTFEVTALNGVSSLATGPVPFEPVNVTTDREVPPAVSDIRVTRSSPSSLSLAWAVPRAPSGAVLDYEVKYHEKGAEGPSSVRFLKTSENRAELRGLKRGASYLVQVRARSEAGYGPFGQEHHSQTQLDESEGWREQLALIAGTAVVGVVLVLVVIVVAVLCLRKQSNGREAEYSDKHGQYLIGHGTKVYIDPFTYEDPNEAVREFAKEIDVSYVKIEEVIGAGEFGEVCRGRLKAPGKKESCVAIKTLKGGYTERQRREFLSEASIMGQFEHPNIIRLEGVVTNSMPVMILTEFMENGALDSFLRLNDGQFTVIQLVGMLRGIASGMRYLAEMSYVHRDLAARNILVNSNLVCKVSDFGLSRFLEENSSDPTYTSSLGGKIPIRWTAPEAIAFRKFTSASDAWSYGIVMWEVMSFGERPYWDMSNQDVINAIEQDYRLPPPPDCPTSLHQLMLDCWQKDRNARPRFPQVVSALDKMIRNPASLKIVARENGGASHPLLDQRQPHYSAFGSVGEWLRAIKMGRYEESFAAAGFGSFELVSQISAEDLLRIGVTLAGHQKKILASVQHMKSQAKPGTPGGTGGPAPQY
As to the kind of experiment: Kinase inhibition assay (33P transfer), EPHB4. Conditions: for IC50: read-out: EPHB4-1.

Each structure is given as a SMILES string.

T7 sequence (P08581 25-1390): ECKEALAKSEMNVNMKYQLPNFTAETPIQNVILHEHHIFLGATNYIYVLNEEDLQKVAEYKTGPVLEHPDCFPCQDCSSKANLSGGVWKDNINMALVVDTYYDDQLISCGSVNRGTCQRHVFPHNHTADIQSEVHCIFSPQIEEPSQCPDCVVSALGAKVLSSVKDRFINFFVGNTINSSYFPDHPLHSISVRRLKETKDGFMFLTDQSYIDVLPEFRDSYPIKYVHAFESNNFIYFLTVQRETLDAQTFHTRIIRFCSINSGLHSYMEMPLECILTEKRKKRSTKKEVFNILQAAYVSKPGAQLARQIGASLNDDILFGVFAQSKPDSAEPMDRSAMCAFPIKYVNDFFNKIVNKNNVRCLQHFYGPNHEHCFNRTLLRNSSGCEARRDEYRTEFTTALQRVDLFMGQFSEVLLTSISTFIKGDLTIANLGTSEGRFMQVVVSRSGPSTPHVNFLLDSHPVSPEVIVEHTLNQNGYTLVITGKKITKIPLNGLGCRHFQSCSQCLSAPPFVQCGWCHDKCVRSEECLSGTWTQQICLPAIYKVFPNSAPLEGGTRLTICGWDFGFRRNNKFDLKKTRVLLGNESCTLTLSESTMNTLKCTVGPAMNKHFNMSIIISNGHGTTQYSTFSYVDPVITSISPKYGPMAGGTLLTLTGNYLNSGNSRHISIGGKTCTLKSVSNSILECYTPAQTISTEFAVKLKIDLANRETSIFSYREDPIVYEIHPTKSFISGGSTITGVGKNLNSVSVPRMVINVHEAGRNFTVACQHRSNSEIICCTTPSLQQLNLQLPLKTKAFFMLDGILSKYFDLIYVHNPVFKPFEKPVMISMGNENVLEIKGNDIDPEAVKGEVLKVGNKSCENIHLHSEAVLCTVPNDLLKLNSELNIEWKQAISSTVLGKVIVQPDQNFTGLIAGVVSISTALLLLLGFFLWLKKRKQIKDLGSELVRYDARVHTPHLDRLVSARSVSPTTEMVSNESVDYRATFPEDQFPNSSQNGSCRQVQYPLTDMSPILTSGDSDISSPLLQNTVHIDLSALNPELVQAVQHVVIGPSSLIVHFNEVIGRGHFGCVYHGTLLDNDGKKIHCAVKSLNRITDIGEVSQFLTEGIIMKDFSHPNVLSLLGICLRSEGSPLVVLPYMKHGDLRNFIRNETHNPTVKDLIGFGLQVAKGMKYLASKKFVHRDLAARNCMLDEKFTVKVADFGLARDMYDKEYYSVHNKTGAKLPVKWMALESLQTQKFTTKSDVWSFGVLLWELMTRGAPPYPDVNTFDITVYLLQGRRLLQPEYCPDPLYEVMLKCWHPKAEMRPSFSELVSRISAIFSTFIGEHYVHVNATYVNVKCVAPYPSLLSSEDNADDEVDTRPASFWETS
T8 sequence (Q9Y243 whole entry, the tested form may be a part): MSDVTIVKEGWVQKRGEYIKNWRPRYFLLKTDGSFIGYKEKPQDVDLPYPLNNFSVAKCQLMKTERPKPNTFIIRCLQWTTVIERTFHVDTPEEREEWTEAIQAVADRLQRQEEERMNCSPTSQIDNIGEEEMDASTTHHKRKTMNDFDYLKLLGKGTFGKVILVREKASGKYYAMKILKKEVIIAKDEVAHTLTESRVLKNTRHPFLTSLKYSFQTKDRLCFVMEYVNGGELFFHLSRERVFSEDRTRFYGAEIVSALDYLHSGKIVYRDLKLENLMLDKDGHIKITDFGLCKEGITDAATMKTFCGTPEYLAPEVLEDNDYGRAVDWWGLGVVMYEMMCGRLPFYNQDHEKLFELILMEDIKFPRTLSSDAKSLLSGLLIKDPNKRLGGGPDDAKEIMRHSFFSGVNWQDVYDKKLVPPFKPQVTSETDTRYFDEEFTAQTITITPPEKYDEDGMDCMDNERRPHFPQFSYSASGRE
T5 sequence (P35968 20-1356, species assumed): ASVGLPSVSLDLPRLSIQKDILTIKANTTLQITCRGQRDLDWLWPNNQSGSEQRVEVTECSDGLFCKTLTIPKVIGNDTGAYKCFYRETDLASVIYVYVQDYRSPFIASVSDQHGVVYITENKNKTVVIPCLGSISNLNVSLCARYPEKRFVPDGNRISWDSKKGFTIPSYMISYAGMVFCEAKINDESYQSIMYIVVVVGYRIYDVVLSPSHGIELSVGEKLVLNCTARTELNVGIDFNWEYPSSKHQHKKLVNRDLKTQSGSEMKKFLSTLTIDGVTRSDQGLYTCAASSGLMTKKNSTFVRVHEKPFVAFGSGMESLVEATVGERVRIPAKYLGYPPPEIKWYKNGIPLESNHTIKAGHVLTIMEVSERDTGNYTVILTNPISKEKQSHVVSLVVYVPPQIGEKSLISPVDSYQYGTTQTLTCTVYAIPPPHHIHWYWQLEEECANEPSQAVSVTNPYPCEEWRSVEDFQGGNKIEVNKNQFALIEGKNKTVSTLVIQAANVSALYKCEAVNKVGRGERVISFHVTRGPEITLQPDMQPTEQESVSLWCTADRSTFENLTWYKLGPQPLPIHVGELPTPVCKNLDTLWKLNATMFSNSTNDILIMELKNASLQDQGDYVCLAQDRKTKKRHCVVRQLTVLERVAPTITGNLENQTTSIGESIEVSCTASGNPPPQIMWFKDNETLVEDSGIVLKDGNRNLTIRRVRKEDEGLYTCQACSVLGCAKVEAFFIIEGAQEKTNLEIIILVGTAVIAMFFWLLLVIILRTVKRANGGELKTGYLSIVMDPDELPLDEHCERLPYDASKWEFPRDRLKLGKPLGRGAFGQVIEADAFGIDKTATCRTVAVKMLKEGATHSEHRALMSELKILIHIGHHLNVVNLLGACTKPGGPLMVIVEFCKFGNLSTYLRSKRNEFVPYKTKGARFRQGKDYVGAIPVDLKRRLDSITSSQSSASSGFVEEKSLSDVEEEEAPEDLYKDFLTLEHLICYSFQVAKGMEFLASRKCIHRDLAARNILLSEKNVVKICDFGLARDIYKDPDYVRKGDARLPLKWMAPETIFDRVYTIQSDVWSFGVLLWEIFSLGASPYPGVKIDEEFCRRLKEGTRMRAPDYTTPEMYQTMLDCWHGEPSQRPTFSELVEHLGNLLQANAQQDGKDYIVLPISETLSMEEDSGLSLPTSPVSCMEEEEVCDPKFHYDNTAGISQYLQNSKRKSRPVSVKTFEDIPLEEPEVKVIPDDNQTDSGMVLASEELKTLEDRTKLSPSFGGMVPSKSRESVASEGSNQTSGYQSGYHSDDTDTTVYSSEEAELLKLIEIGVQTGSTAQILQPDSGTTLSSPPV
T1 sequence (P06239 whole entry, species assumed, the tested form may be a part): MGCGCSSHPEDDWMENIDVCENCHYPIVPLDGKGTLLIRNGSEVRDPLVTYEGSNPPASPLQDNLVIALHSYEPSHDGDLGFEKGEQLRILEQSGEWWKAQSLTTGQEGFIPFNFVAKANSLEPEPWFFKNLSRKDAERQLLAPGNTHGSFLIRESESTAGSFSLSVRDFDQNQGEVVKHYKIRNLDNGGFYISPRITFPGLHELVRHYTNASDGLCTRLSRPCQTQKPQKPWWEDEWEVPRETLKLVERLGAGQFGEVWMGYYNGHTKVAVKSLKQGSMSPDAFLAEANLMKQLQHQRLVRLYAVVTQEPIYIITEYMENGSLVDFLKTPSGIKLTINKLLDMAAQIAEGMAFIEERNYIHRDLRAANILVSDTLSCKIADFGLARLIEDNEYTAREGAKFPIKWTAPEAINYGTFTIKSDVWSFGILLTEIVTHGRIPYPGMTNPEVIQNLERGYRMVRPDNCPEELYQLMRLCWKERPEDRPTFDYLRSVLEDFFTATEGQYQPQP
T4 sequence (P00533 25-1210, species assumed): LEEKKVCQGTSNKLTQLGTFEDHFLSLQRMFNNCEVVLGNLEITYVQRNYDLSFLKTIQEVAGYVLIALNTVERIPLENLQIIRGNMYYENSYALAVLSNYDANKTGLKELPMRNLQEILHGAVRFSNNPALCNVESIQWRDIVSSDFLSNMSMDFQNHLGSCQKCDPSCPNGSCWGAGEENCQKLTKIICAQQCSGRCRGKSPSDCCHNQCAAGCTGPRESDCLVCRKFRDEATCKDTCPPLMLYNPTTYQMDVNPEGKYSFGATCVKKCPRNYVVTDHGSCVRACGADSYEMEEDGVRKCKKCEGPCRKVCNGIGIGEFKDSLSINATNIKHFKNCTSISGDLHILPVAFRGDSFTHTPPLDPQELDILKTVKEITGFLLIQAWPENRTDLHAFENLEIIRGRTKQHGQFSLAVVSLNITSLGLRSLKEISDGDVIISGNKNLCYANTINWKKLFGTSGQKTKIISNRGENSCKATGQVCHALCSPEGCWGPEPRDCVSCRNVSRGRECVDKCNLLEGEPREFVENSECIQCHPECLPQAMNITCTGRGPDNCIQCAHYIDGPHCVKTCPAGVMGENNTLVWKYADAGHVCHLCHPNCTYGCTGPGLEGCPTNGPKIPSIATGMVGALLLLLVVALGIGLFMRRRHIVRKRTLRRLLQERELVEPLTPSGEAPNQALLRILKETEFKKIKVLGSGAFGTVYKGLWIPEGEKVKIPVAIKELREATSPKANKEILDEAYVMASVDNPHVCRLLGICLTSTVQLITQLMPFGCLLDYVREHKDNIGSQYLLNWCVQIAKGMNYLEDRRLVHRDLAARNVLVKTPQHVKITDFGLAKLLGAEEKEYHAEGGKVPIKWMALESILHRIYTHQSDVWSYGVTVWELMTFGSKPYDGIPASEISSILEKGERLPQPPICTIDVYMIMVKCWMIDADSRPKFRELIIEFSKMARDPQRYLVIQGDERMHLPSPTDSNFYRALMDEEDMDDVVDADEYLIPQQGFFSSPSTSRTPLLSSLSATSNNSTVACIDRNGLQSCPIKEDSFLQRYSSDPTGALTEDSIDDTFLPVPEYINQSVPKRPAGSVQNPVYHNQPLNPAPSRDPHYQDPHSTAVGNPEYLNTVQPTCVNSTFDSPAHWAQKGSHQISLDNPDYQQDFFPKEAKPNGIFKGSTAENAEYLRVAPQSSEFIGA

Regarding `COC(=O)c1ccc(Nc2ncnc(Nc3cc(-c4ccco4)n[nH]3)n2)cc1` [Compound 366], the IC50 on Lck is 6.36 to 9.27 µM; at Zap-70 it was 6.36 to 9.27 µM; on Itk it was more than 11.9 µM; on EGFR it was more than 11.9 µM; on Kdr, more than 11.9 µM; on Tek it was more than 11.9 µM. For the same molecule, the IC50 at c-Met was more than 11.9 µM; on AKT it was more than 11.9 µM; against IGFR-1 it was 1.06 to 6.36 µM; at EPHB4 it was 1.06 to 6.36 µM.
Take `COc1cc(Nc2ncnc(-n3cc(C#N)c4ccccc43)n2)cc(OC)c1OC` [Compound 332]: the IC50 is 8.7 to 11.2 µM on Lck; more than 11.2 µM on Zap-70; more than 11.2 µM on Itk; more than 11.2 µM at EGFR; 0.994 to 5.96 µM at Kdr; 5.96 to 8.7 µM on c-Met. Besides, the IC50 on AKT was more than 11.2 µM; against IGFR-1, 5.96 to 8.7 µM; on EPHB4 it was 0.994 to 5.96 µM.
Take `COc1cc(C)c(Nc2ncnc(Nc3cc(-c4ccco4)n[nH]3)n2)cc1OC` [Compound 338]: the IC50 on Lck is 1.02 to 6.1 µM; at Zap-70, more than 11.4 µM; on Itk, more than 11.4 µM; at EGFR, 1.02 to 6.1 µM; on Kdr, 1.02 to 6.1 µM; on c-Met, 1.02 to 6.1 µM. Besides, the IC50 at AKT is more than 11.4 µM; on IGFR-1 it was less than 1.02 µM; at EPHB4, 6.1 to 8.9 µM.
In the case of `COC(=O)c1cc(Nc2ncnc(Nc3cc(-c4ccco4)n[nH]3)n2)cc(C(=O)OC)c1` [Compound 343], the IC50 on Lck is more than 10.3 µM; on Zap-70 it was more than 10.3 µM; on Itk, more than 10.3 µM; on EGFR it was more than 10.3 µM; on Kdr, 0.919 to 5.51 µM; at c-Met it was 8.04 to 10.3 µM. Besides, the IC50 is more than 10.3 µM at AKT, 0.919 to 5.51 µM against IGFR-1 and 0.919 to 5.51 µM on EPHB4.
`COc1cc(Nc2ncnc(Nc3ccncc3)n2)cc(OC)c1OC` [Compound 39]: the IC50 at Lck, on Zap-70, on Itk, on EGFR, at Kdr and on c-Met was more than 12.7 µM throughout. The IC50 on AKT, against IGFR-1 and on EPHB4 was more than 12.7 µM each time.
Turning to `COc1cc(NC(=O)Nc2ncnc(-c3ccncc3)n2)cc(OC)c1OC` [Compound 1118], the Lck-1 result on Lck is “E (E>4.5 ug/mL)”. Moreover, the Zap-1 result at Zap-70 is “E (E>4.5 ug/mL)”. In addition, the Itk-1 result at Itk was “E (E>4.5 ug/mL)”. The EGFR-1 result at EGFR is “B (B>0.4 and <2.4 ug/mL)”. At Kdr, the KDR-1 entry is given as “E (E>4.5 ug/mL)”. Further, on c-Met, the Met-1 entry is “E (E>4.5 ug/mL)”. Moreover, the AKT3-1 result at AKT was “E (E>4.5 ug/mL)”. The IGFR-1 result on IGFR-1 is given as “E (E>4.5 ug/mL)”. In addition, the EPHB4-1 result at EPHB4 is recorded as “E (E>4.5 ug/mL)”.
With `COc1cc(Nc2ncnc(-c3ccc(C)cc3)n2)cc(OC)c1OC` [Compound 221], the IC50 at Lck was more than 12.8 µM; on Zap-70, more than 12.8 µM; at Itk it was more than 12.8 µM; at EGFR, more than 12.8 µM; at Kdr it was 1.14 to 6.81 µM; on c-Met, more than 12.8 µM. In addition, the IC50 on AKT is more than 12.8 µM; against IGFR-1, less than 1.14 µM; on EPHB4, 1.14 to 6.81 µM.
For `COc1cc(Nc2ncnc(-n3c(Nc4ccc(C#N)cc4)nc4ccccc43)n2)cc(OC)c1OC` [Compound 381], the IC50 on Lck was 7.08 to 9.1 µM; on Zap-70, more than 9.1 µM; on Itk, more than 9.1 µM; on EGFR, more than 9.1 µM; on Kdr, 4.85 to 7.08 µM; on c-Met it was 7.08 to 9.1 µM. Moreover, the IC50 at AKT is more than 9.1 µM; against IGFR-1, more than 9.1 µM; at EPHB4, 0.809 to 4.85 µM.
As to `COc1cc(Nc2ncnc(Nc3cccc(OCc4ccccc4)c3)n2)cc(OC)c1OC` [Compound 73], the IC50 at Lck, on Zap-70, on Itk, at EGFR, on Kdr and on c-Met was more than 9.79 µM throughout. For the same molecule, the IC50 at AKT, against IGFR-1 and at EPHB4 was more than 9.79 µM each time.
For `FC(F)C(F)(F)Oc1cccc(Nc2ncnc(-c3ccnc(Cl)c3)n2)c1` [Compound 330], the IC50 at Lck, at Zap-70, on Itk, on EGFR, on Kdr and at c-Met was more than 11.3 µM throughout. Besides, the IC50 was more than 11.3 µM on AKT, 8.76 to 11.3 µM on IGFR-1 and 6 to 8.76 µM on EPHB4.
For `COc1cc(Nc2ncnc(Nc3ccc(NC(=O)OC(C)(C)C)cc3)n2)cc(OC)c1OC` [Compound 69], the IC50 was 0.854 to 5.12 µM on Lck; more than 9.6 µM at Zap-70; more than 9.6 µM at Itk; more than 9.6 µM at EGFR; 0.854 to 5.12 µM at Kdr; more than 9.6 µM at c-Met. Besides, the IC50 on AKT, on IGFR-1 and on EPHB4 was more than 9.6 µM each time.
`COc1cc(Nc2ncnc(Nc3ccccn3)n2)cc(OC)c1OC` [Compound 40]: the IC50 on Lck, on Zap-70, on Itk, at EGFR, at Kdr and at c-Met was more than 12.7 µM in each case. In addition, the IC50 on AKT, against IGFR-1 and at EPHB4 was more than 12.7 µM in each case.

The record behind these values is patent US7074789B2, “Kinase inhibitors” (Amgen Inc., priority 1999, dated 2006).
